Measurements published in ChEMBL document CHEMBL1146572, “Isolation and characterization of miscellaneous secondary metabolites of Deprea subtriflora” (J Nat Prod, 2003).

Key:
[1] = Growth inhibition of mouse Hepa-1c1c7 cells; type: cell-based
[2] = Chemoprevention index, ratio of IC50 for mouse Hepa-1c1c7 cells to CD for NADPH:quinone reductase specific activity in mouse Hepa-1c1c7 cells; type: functional

Row | SMILES | IC50 [1] [µM] | Ratio [2]
1 | C[C@H]1CC([C@](C)(O)[C@@]2(O)CC[C@H]3[C@@H]4C[C@H]5O[C@]56[C@@H](O)C=CC(=O)[C@]6(C)[C@H]4CC[C@@]32C)OC(=O)[C@@H]1C (stereo partly specified) [PHILADELPHICALACTONE A] | 0.47 | 11.8
2 | C[C@H]1C(=O)OC(C2O[C@]34C[C@H]5[C@@H](C[C@H]6O[C@H]7CC(=O)[C@@]5(C)[C@@]6(O)C7=O)[C@@H]5C[C@@H](O3)[C@@H]([C@@H]54)[C@@]2(C)O)[C@@H]1C (stereo partly specified) [SUBTRIFLORALACTONE K] | 4.8 | 13.3
3 | C[S+]([O-])CCCCN=C=S (stereo unspecified) [SULFORAPHANE] | 11.7 | 23.9
